# Test results published in publication PMC12260505, “First-in-Human Phase I/IIa Study of the First-in-Class CDK2/4/6 Inhibitor PF-06873600 Alone or with Endocrine Therapy in Patients with Breast Cancer” (Clinical Cancer Research, 2025).
# Experiments:
# [1] = system: HR+/HER2− metastatic breast cancer; test: Antitumor activity by RECIST version 1.1; type: in vivo, human; conditions: for Objective response (CR + PR; pts with HR+/HER2− breast cancer with measurable disease at baseline and prior CDK4/6i): 40 such pts
# Method: Antitumor activity was assessed through radiological tumor assessments conducted at baseline, during treatment, whenever disease progression was suspected (e.g., symptomatic deterioration), and at the time of withdrawal from treatment (if not done in the previous 8 weeks). Responses were assessed using RECIST version 1.1.
# DLT was the primary endpoint of the study, summarized by dose level using the per-protocol analysis set for patients in the dose escalation portion of the study. Efficacy analysis was summarized by dose cohorts for part 2 of the study. For part 1, no formal efficacy analysis was presented. For part 2, tumor response was presented in the form of patient data listings that included, but were not limited to, tumor type, starting dose, tumor response at each visit, and best overall response. In addition, progression date, death date, date of first response, last tumor assessment date, and date of last contact were listed. ORR, PFS, overall survival, TTP, and DoR were summarized and presented as data permitted. For response-based metrics (best overall response, ORR, and DoR), analyses were presented on the basis of confirmed responses. Analyses of PFS and TTP were defined as the time from the date of the first dose. Summaries of the number and percentage of patients with PFS and TTP and data listings by tumor type and dose were generated based on data availability. The 95% confidence intervals (CI) for medians and quartiles were generated based on the Brookmeyer–Crowley method, whereas CIs for the estimated probability of an event at a particular time point were generated using the Greenwood formula. DoR was summarized with the number of responders, the number and percentage of events/censorship, mean, standard deviation, and minimum, maximum, and median duration in units of months. ORR was summarized by the number of patients meeting respective criteria as a percentage. The 95% CIs were generated for PFS, TTP, and ORR based on available data.
# Ki67 = test: IHC of Ki67 in paired tumor biopsies; type: in vivo, human
# Method: The pharmacodynamic effects of PF-06873600 were assessed by IHC staining of pRb and Ki67 in tumor biopsy samples collected at screening and day 1 of cycle 2 (4 hours after dose). Immunostaining was performed on […] formalin-fixed, paraffin-embedded tissue sections using rabbit monoclonal anti-Rb (Ser807/811) antibody (clone D20B12, Cell Signaling Technology) and rabbit monoclonal anti-Ki67 antibody (Ventana Medical Systems), respectively. pRb and Ki67 expressions were assessed semiquantitatively by a board-certified pathologist. Scoring was performed using the percentage of cells positive for Ki67 or a histo-score (H-score) methodology for pRb based on staining intensity and the percentage of positive cells. Intensity was scored as 0, none; 1, weak; 2, moderate; or 3, strong, and H-scores were calculated as follows: H-score = [fraction of cells with intensity grade 1 (%)] + [fraction of cells with intensity grade 2 (%) × 2] + [fraction of cells with intensity grade 3 (%) × 3].
# [2] = Part 2A 25 mg twice daily IR + Fulvestrant, n = 45, response-evaluable set
# [3] = Part 2C 25 mg twice daily IR + Fulvestrant, n = 22, response-evaluable set
# [4] = Part 2 total (2A + 2C, + Fulvestrant), N = 67
smiles,measurement,setting,value
C[C@@]1(O)CCC[C@H]1n1c(=O)c(C(F)F)cc2cnc(NC3CCN(S(C)(=O)=O)CC3)nc21 [PF-06873600],Objective response (CR + PR; pts with HR+/HER2− breast cancer with measurable disease at baseline and prior CDK4/6i),[1]; Part 2A 25 mg twice daily IR + Fulvestrant,3 (7.5) n (%)
same,Objective response (pts with HR+/HER2− breast cancer with measurable disease at baseline),"[1]; Part 2A 25 mg twice daily IR + Fulvestrant, 44 such pts",3 (6.8) n (%)
same,"Clinical benefit response (CR, PR, or ≥24 weeks stable disease)",[1]; [2],19 (42.2) n (%)
same,"Confirmed best overall response, CR",[1]; [2],0 n (%)
same,"Confirmed best overall response, NE (not evaluable)",[1]; [2],1 (2.2) n (%)
same,"Confirmed best overall response, Non-CR/non-PD",[1]; [2],0 n (%)
same,"Confirmed best overall response, PR",[1]; [2],3 (6.7) n (%)
same,"Confirmed best overall response, Progressive disease (PD)",[1]; [2],11 (24.4) n (%)
same,"Confirmed best overall response, Stable disease",[1]; [2],30 (66.7) n (%)
same,Disease control (CR + PR + stable disease + non-CR/non-PD),[1]; [2],33 (73.3) n (%)
same,Objective response (CR + PR),[1]; [2],3 (6.7) n (%)
same,Objective response (pts with HR+/HER2− breast cancer with measurable disease at baseline),"[1]; Part 2C 25 mg twice daily IR + Fulvestrant, 20 such pts",5 (25.0) n (%)
same,"Clinical benefit response (CR, PR, or ≥24 weeks stable disease)",[1]; [3],13 (59.1) n (%)
same,"Confirmed best overall response, CR",[1]; [3],0 n (%)
same,"Confirmed best overall response, NE (not evaluable)",[1]; [3],1 (4.5) n (%)
same,"Confirmed best overall response, Non-CR/non-PD",[1]; [3],1 (4.5) n (%)
same,"Confirmed best overall response, PR",[1]; [3],5 (22.7) n (%)
same,"Confirmed best overall response, Progressive disease (PD)",[1]; [3],2 (9.1) n (%)
same,"Confirmed best overall response, Stable disease",[1]; [3],13 (59.1) n (%)
same,Disease control (CR + PR + stable disease + non-CR/non-PD),[1]; [3],19 (86.4) n (%)
same,Objective response (CR + PR),[1]; [3],5 (22.7) n (%)
same,"Clinical benefit response (CR, PR, or ≥24 weeks stable disease)",[1]; [4],32 (47.8) n (%)
same,"Confirmed best overall response, CR",[1]; [4],0 n (%)
same,"Confirmed best overall response, NE (not evaluable)",[1]; [4],2 (3.0) n (%)
same,"Confirmed best overall response, Non-CR/non-PD",[1]; [4],1 (1.5) n (%)
same,"Confirmed best overall response, PR",[1]; [4],8 (11.9) n (%)
same,"Confirmed best overall response, Progressive disease (PD)",[1]; [4],13 (19.4) n (%)
same,"Confirmed best overall response, Stable disease",[1]; [4],43 (64.2) n (%)
same,Disease control (CR + PR + stable disease + non-CR/non-PD),[1]; [4],52 (77.6) n (%)
same,Objective response (CR + PR),[1]; [4],8 (11.9) n (%)
same,Objective response (CR + PR; pts with HR+/HER2− breast cancer with measurable disease at baseline and prior CDK4/6i),[1]; Part 2 total (+ Fulvestrant),3 (7.5) n (%)
same,Objective response (pts with HR+/HER2− breast cancer with measurable disease at baseline),"[1]; Part 2 total (+ Fulvestrant), 64 such pts",8 (12.5) n (%)
same,"Partial responses (PR), patients","[1]; part 1 dose escalation, 78 patients (parts 1A, 1B, 1C)",3.8%
same,Median percentage change in Ki67-positive cells from baseline,"Ki67; IR 25 mg twice daily monotherapy, cycle 2 day 1, HR+/HER2− mBC tumor biopsies",–11.7%
same,Median percentage change in Ki67-positive cells from baseline,"Ki67; IR 25 mg twice daily/fulvestrant combination, cycle 2 day 1",–35.9%
